Like-named read-outs stand apart in the source and are kept apart here.
Experiments:
[1] = Safety assessments (adverse events, vital signs, ECG, injection/infusion site) in the crossover study in healthy subjects
Procedure: Twelve (12) subjects were randomized to receive a total daily dose of 120 mg Ketorolac tromethamine (Ketorolac Tromethamine Injection, USP 30 mg/mL, manufactured by Hospira Inc., Lot No.: 51600LL) administered as either: (Treatment A) one continuous SC infusion of 4 mL to the abdomen over 24 hours at a steady rate of 5 mg/hr (0.167 mL/hr), or (Treatment B) four IM bolus injections of 30 mg (1 mL) to alternating gluteus maximus muscle every 6 hours. For the continuous SC infusion, the MedFusion 3500 syringe pump was assembled with Animas Inset Infusion Set 23 inch 6 mm 10/box Grey (100-182-00), B-D Luer-Lok Syringe 5 mL and B-D 20 G 1 inch needle (Becton Dickinson). The treatments were separated by a washout period of ≥4 days.
All subjects underwent pre-dose (each period) and post-study assessments including physical examinations, routine laboratory tests, vital signs, and 12-lead electrocardiograms (ECGs). Alcohol and drug screen were conducted before each dosing period. All subjects were between 19 and 55 years old with a body mass index (BMI) between 18.5 and 30.0 kg/m2. Subjects had to refrain from the use of any prescription medications including over-the-counter products, herbal products or vitamin supplement within 14 days of dosing.

[2] = for plasma Ketorolac concentration (predose Ctrough), Geometric LSM: Treatment B four IM bolus injections every 6 hours
Procedure: (§1) Twelve (12) subjects were randomized to receive a total daily dose of 120 mg Ketorolac tromethamine (Ketorolac Tromethamine Injection, USP 30 mg/mL, manufactured by Hospira Inc., Lot No.: 51600LL) administered as either: (Treatment A) one continuous SC infusion of 4 mL to the abdomen over 24 hours at a steady rate of 5 mg/hr (0.167 mL/hr), or (Treatment B) four IM bolus injections of 30 mg (1 mL) to alternating gluteus maximus muscle every 6 hours. […] The treatments were separated by a washout period of ≥4 days. The total daily dose of 120 mg Ketorolac tromethamine administered as 4×30 mg/mL IM bolus injections is a recommended treatment for subjects under 65 years of age according to the product labeling.
(§2) Blood samples for the determination of plasma Ketorolac following continuous SC infusion (Treatment A) were collected at the following time points: pre-dose (0 hour), 0.25, 0.5, 1, 1.5, 2, 4, 6, 8, 10, 12, 14, 16, 18, 20, 22, 23, 24 (2 blood samples were collected at the 24 hour time point; 1 immediately prior to the end of infusion and 1 immediately following end of infusion), 24.167, 24.33, 24.5, 25, 26, 28, 30, 32, 36, and at 48 hours post-dose. The time for post-dose blood collection are expressed relative to the start of infusion.
(§3) Blood samples for the determination of plasma Ketorolac following IM injections (Treatment B) were collected at the following time points: pre-dose (0 hour), 0.167, 0.25, 0.5, 0.75, 1, 1.25, 1.5, 2, 3, 4, 6 (pre-dose), 6.25, 6.5, 6.75, 7, 8, 10, 12 (pre-dose), 12.25, 12.75, 13, 14, 16, 18 (pre-dose), 18.25, 18.5, 18.75, 19, 20, 22, 24, 28, 32, and at 48 hours post-dose. The time for post-dose blood collection are expressed relative to the first IM injection.
(§4) Ketorolac plasma concentrations were determined using a validated liquid chromatographic tandem mass spectrometry (LC-MS/MS) method, with a lower limit of quantitation (LLOQ) of 10.0 ng/mL9. The validated plasma Ketorolac concentration range was 10.0 to 5000 ng/mL. Assay performance was monitored using quality control (QC) samples at concentrations of 30.0 ng/mL, 200 ng/mL, and 3800 ng/mL; the % CV for the QCs ranged from 1.3% to 15.1% and accuracy was 91.6-102.5%.
(§5) Non-compartmental PK parameters were calculated from Ketorolac concentrations-time data in plasma using Phoenix® WinNonlin® Professional (Versions 6.3; Pharsight, Mountain View, Calif.). […] AUC0-inf was calculated as the sum AUC0-last plus the ratio of the last measurable plasma concentration (Clast) to kel; AUC0-last, AUC0-24, and AUCtau were calculated by the linear trapezoidal summation method; AUCext was calculated as 1-AUC0-last/AUC0-inf multiplied by 100, Cmax, Ctrough, tmax were reported as observed values; Cavg was calculated as AUCtau divided by 6 hours for the IM administration; Css was calculated as the average of the concentrations from the time steady-state was reached until the end of SC infusion; CL/F was calculated as dose/AUC0-inf (for SC administration) or dose/AUCtau (for IM administration); Vz/F was calculated as (CL/F)/kel); kel was calculated by linear least-square regression analysis using the maximum number of points in the terminal log-linear phase (using 3 or more non-zero plasma concentrations); t½ was calculated as ln(2)/kel.
(§6) Statistical analyses were conducted to compare Ketorolac AUC0 24, AUC0 last, and Cmax following continuous SC infusion and repeat IM bolus injections. A SAS® mixed model procedure was performed on the natural log (ln)-transformed PK parameters.

clinical = conditions: human, plasma
Procedure: as §1, §2, §3, §4, §5, §6

[3] = Simulation of plasma Ketorolac concentrations with the MMSPK population pharmacokinetic model (NONMEM); set-up: species or system human; conditions: population PK model parameter estimate
Source text: A modified version of the Mandema-Stanski published model for Ketorolac (termed the Modified Mandema-Stanski PK model, or the MMSPK Model) was developed in steps; a base model development step for description of structural components of the model followed by a covariate analysis. For the latter the base model output was used to conduct a graphical evaluation of the covariates at first. A full model including all relevant covariate effects (e.g. each covariate-parameter relationship which was significant during single covariate model testing was included in the full model) was then developed. A final model was chosen by retaining only the statistically significant covariate effects. The parameters in the population models were estimated using the NONMEM software program (version 7.3). The stochastic approximation estimation method (SAEM) was used for estimation. A visual predictive check (VPC) was conducted for the model using all data.
Simulations: Once the model was qualified, stochastic simulations were conducted to assess the expected range of concentrations following several dose regimens. […]
For each simulation scenario 800 subjects were simulated. […] The simulation outputs were assessed graphically and summaries of key metrics (see Table 1) were summarized and tabled. […]

[4] = oral KT; literature value used in simulations; cited from earlier work
[5] = Treatment A (Test, N = 11): continuous SC infusion over 24 hours
[6] = Treatment A versus Treatment B, 100 * (test/reference)
[7] = Treatment A: 120 mg continuous SC infusion over 24 hours, N = 11, geom. mean (geom. CV %)
[8] = Treatment A: 120 mg continuous SC infusion over 24 hours, N = 11, mean ± SD
[9] = Treatment A, individual spline (quadratic plateau) regression, N 11
[10] = Treatment A, individual spline (quadratic plateau) regression, N 11, listed as Ketorolac tromethamine
[11] = Treatment B (Reference, N = 12): four IM bolus injections of 30 mg every 6 hours

O=C(c1ccccc1)c1ccc2n1CCC2C(=O)O (racemic) [Ketorolac, (±)-5-benzoyl-2,3-dihydro-1H-pyrrolizine-1-carboxylic acid, compound with 2-amino-2-(hydroxymethyl)-1,3-propanediol]
infusion site adverse event ([1]; Treatment A, 13 minutes following completion of the 24-hour infusion, resolved in approximately 2 days, possibly related to study drug): One subject experienced mild infusion site pain | injection site adverse event ([1]; Treatment B, approximately 6.5 hours after the 4th IM injection, resolved in 15 days, not related to study drug): Another subject experienced mild injection site hemorrhage | subjects experiencing TEAEs following each treatment arm ([1]; each of Treatment A and Treatment B): 2 subjects | safety and tolerability ([1]; total dose of 120 mg via continuous SC infusion): safe and well tolerated | vital sign, ECG, or injection/infusion site reaction results ([1]; whole study): no clinically significant trends | subjects experiencing TEAEs ([1]; whole study, 12 subjects): 4 (33%) subjects | deaths or serious adverse events (SAEs) ([1]; whole study, both treatments): no deaths or serious adverse events (SAEs) | number of mild treatment emergent adverse events (TEAEs) ([1]; whole study, both treatments): 7 | AUC0-24 Geometric LSM [2, 5]: 21510 ng·h/mL | AUC0-last Geometric LSM [2, 5]: 28260 ng·h/mL | overall Tss (time to steady-state) ([2]; Treatment A SC infusion, Helmert contrast): 18 h | overall exposure (AUC0-24 and AUC0-last), SC infusion compared with IM bolus injections ([2]; Treatment A versus Treatment B): similar | Cmax lower following continuous SC infusion compared to 4 IM bolus injections ([2]; Treatment A versus Treatment B, 120 mg total daily dose): 40% | AUC0-24 Geometric Mean Ratio [2, 6]: 91.23% | AUC0-last Geometric Mean Ratio [2, 6]: 101.53% | Cmax—all Geometric Mean Ratio [2, 6]: 59.86% | AUC0-last [2, 7]: 28.48 (30.9) μg * hr/mL | Cmax—all [2, 7]: 1.344 (25.6) μg/mL | AUC%extrap [2, 8]: 1.96 ± 1.2860% | Css [2, 8]: 1238 ± 299.6 ng/mL | Kel ([2]; Treatment A: 120 mg continuous SC infusion over 24 hours, mean ± SD): 0.1014 ± 0.01213 h⁻¹ | CL/F ([2]; Treatment A: 120 mg continuous SC infusion over 24 hours, mean ± SD, listed as Ketorolac tromethamine): 2.924 ± 0.9799 L/h | Plateau Concentration, Mean (SD) [2, 9]: 1053 (234.5) ng/mL | Plateau Concentration, Median (Min, Max) [2, 9]: 1084 ng/mL | Time to Steady-State, Mean (SD) [2, 9]: 6.30 (4.17) hr | Time to Steady-State, Median (Min, Max) [2, 9]: 4 h | Plateau Concentration, Median (Min, Max) [2, 10]: 1084 (572.4, 1426) ng/mL | Time to Steady-State, Median (Min, Max) [2, 10]: 3.68 (1.98, 13.63) hr | AUC0-24 Geometric LSM [2, 11]: 23580 ng·h/mL | AUC0-last Geometric LSM [2, 11]: 27830 ng·h/mL | plasma Ketorolac concentration (predose Ctrough), Geometric LSM ([2]; Hour 6): 302.545 | plasma Ketorolac concentration (predose Ctrough), Geometric LSM ([2]; Hour 12): 368.216 | plasma Ketorolac concentration (predose Ctrough), Geometric LSM ([2]; Hour 18): 432.393 | plasma Ketorolac concentration (predose Ctrough), Geometric LSM ([2]; Hour 24): 564.178 | Ctrough (LSM) at the highest ([2]; following IM injections (Treatment B)): 564.2 ng/mL | Individual Tss (spline method), range ([2]; following SC infusion (Treatment A)): 2.0 to 14 h | geometric LSM Css ([2]; following SC infusion (Treatment A), Helmert contrast): 1160 ng/mL | half-life (clinical; 120 mg): ~7 h | AUC (clinical; im, 30 mg): 6810 ng·h/mL | AUC(0-t) (clinical; im, 30 mg): 23600 ng·h/mL | Cmax (clinical; im, 30 mg): 2240 ng/mL | Tmax (clinical; im, 30 mg): 9.25 h | Vd/F (clinical; im, 30 mg): 30.3 ± 7.69 L | half-life (clinical; im, 30 mg): 7.02 ± 1.44 h | AUC(0-inf) (clinical; sc, 120 mg): 29100 ng·h/mL | AUC(0-t) (clinical; sc, 120 mg): 21500 ng·h/mL | Cmax (clinical; sc, 120 mg): 1340 ng/mL | Tmax (clinical; sc, 120 mg): 23 h | Vd/F (clinical; sc, 120 mg): 29.1 ± 10.9 L | concentration at 4 h (clinical; sc, 120 mg): 617 ng/mL | concentration at 6 h (clinical; sc, 120 mg): 718 ng/mL | concentration at 8 h (clinical; sc, 120 mg): 838 ng/mL | concentration at 10 h (clinical; sc, 120 mg): 894 ng/mL | concentration at 12 h (clinical; sc, 120 mg): 946 ng/mL | concentration at 14 h (clinical; sc, 120 mg): 1020 ng/mL | concentration at 16 h (clinical; sc, 120 mg): 1050 ng/mL | concentration at 18 h (clinical; sc, 120 mg): 1160 ng/mL | concentration at 20 h (clinical; sc, 120 mg): 1210 ng/mL | concentration at 22 h (clinical; sc, 120 mg): 1200 ng/mL | concentration at 23 h (clinical; sc, 120 mg): 1230 ng/mL | concentration at 24 h (clinical; sc, 120 mg): 1170 ng/mL | half-life (clinical; sc, 120 mg): 6.93 ± 0.84 h | CL estimate (MMSPK model) [3]: 2.92 L/h | estimated Ka for IM absorption (MMSPK model) [3]: 11.6 h⁻¹ | Ka [4]: 11 h⁻¹ | absorption lag time [4]: 0.2 h
